Experimental data taken from patent publication US12559471B2, “1,5-dihydro-2,4-benzodiazepine-3-one derivative and application thereof” (JIANGSU NHWA PHARMACEUTICAL CO., LTD, priority 2020, dated 2026).
Values joined by “and” are separate entries in the source; they are usually repeats but may differ in a detail not shown here. Equal entries are not always repeated.

Assays:
[1] = tested on: MPTP+MK-801-induced Parkinson's disease mouse model; experiment: MPTP+MK-801-induced Parkinson's disease mouse model (anti-PDP efficacy model); type: in vivo; conditions: ip, mice, intraperitoneal, read-out: PDP efficacy (high activity) ED50
Description: 1.1 Effect on MPTP+MK-801-induced Parkinson's disease mouse model (anti-PDP efficacy model)
Animals were injected with different doses of MPTP(1-methyl-4-phenyl-1,2,3,6-tetrahydropyridine) intraperitoneally every morning for 5 consecutive days. […] Then, after an interval of 0.25 h, the mice were placed into an autonomous activity test box (a black polyethylene box with the specification of 29 cm×29 cm×30 cm) for video recording for 20 min. Video analysis was performed after the video recording to evaluate the activity of the mice.

[2] = MPTP+APO-induced climbing behavior in male mice (DA motor deterioration model); type: in vivo; conditions: mouse, in vivo, ip; male mice, intraperitoneal; read-out: DA side effects (climbing motor deterioration) ED50
Description: (§1) 1.2 Effect on MPTP+APO-induced climbing behavior in male mice (DA motor deterioration model) Animals were injected with different doses of MPTP intraperitoneally every morning for 5 consecutive days. […] After the subcutaneous injection, animals were immediately placed into a climbing cage (self-made, a cylindrical cage with the diameter of 13 cm and the height of 15 cm, made of a stainless steel wire mesh with the diameter of about 0.1 cm, the bottom of which is a semitransparent polyethylene plate, and the cage cover of which is a stainless steel cage cover), and the behaviors of animals at minutes 10-11, 20-21 and 30-31 after the APO injection was observed and scored.
(§2) Scoring criteria: four feet on the floor scored 0; two forepaws on the cage scored 1; and four feet on the cage scored 2.

[3] = tested on: MPTP+APO-induced climbing behavior in male mice; experiment: as above; type: in vivo
Description: as §1, §2

[4] = Investigation of sedation side effects (autonomic activity, movement distance); type: in vivo, mice; conditions: mouse, in vivo, ip; C57BL/6j mice, intraperitoneal, 45 min after administration
Description: (§3) 1.3 Investigation of Sedation Side Effects (Anti-Sedation Model)
(§4) According to different doses of each group, solutions at different concentrations were separately formulated for intraperitoneal injection, with the final administration volume of 10 mL/kg.
(§5) The movement at 0-20 min was recorded on video, and the movement distance in 20 min was analyzed by Top Scan 3.00 software. The inhibition rate of each group relative to the blank group after the administration were calculated, and the sedation effects of the compounds were comprehensively evaluated in combination with a statistical conclusion.

[5] = tested on: DOI-induced head shaking behavior of mice; experiment: DOI-induced head shaking (head thrust) test in mice; type: in vivo; conditions: Mus musculus, intragastric, DOI 1 mg/kg i.p., 0-20 min, read-out: ED50 for inhibiting the DOI-induced head shaking behavior
Description: 1. Head Thrust Test in Mice
Mice were stratified according to body weight and then randomly divided into a model control group, a blank control group and drug administration groups. 1 h after the intragastric administration of a vehicle or a drug, the animals were placed in a beaker (with the diameter of 13 cm and the height of 19 cm) paved with fresh padding, and were injected with a modeling drug DOI ((±)-1-(2,5-dimethoxy-4-iodophenyl)-2-aminopropane hydrochloride or (±)-2,5-dimethoxy-4-iodoamphetamine hydrochloride) intraperitoneally at a dose of 1 mg/kg. The head shaking times of the mice during the 0-20 min after the intraperitoneal injection of DOI were recorded. The head shaking behavior is defined as a rapid rotational twitching or wet dog-like shaking of the mouse head, which is distinguished from normal grooming or exploring behavior.

[6] = tested on: MK-801-induced high activity behavior of mice; experiment: Dizocilpine (MK-801)-induced high activity test in mice; type: in vivo; conditions: Mus musculus, 1 h, intragastric, MK-801 0.3 mg/kg i.p., 60 min, read-out: ED50 for inhibiting the MK-801-induced high activity behavior
Description: 2. Dizocilpine (MK-801)-Induced High Activity Test in Mice 2.1 Test Method
Mice were stratified according to body weight and then randomly divided into a model control group, a blank control group and drug administration groups. After the administration of a test substance (or a control substance), the mice were placed into an autonomous activity test box (a black polyethylene box with the specification of 29 cm×29 cm×30 cm) for adaptation, and injected with MK-801 at 0.3 mg/kg intraperitoneally 1 h after the intragastric administration. The mice were then placed into the autonomous activity test box for video recording for 60 min. Video analysis was performed after the video recording to evaluate the activity of the mice.

[7] = tested on: DOI-induced PPI impairment in rats; experiment: DOI-induced PPI impairment test in rats (intervention test); type: in vivo; conditions: DOI 0.5 mg/kg; for reversal of DOI-induced PPI impairment: P<0.05
Description: 3. DOI ((f)-1-(2,5-dimethoxy-4-iodophenyl)-2-aminopropane hydrochloride or (f)-2,5-dimethoxy-4-iodoamphetamine hydrochloride) induced PPI impairment effect test in rats
30 min after the intragastric administration of a drug (or a vehicle) and 30 min after the subcutaneous injection of DOI at 0.5 mg/kg at the neck, namely 60 min after the intragastric administration, the rats were placed into a startle reflex test box for testing.
(§6) The test was performed according to literature and preliminary experiments, and the specific process was as follows: first an adaptation period of 5 min was given (62 dB background sound), and 5 separate startle reflex stimuli were given after the adaptation period (blockl, results not included in the analysis to reduce the initial response of the animals to a plateau level), followed by 4 different types of tests (block2) presented in a pseudo-random manner, namely: 1) startle reflex stimulus alone (pulse-alone, 120 dB, lasting 20 ms); 2) prepulse stimulus alone 13 dB above the background sound (prepulse-alone, 75 dB, lasting 20 ms); 3) prepulse stimulus in combination with startle reflex stimulus, each lasting 20 ms, with an interval of 100 ms; and 4) no stimulus in which only the background sound was given (no stimulus). Each trial was performed 5 times, with an average interval of 20 s (10-30 s) between trials.
(§7) The response amplitude of the startle reflex stimulus alone or the prepulse stimulus in combination with startle reflex stimulus was expressed as the AVG (instrument-specific unit) value, which indirectly reflects the size of the flinching response of the rat body. Evaluation index: PPI %=(1−response amplitude of prepulse stimulus in combination with startle reflex stimulus/response amplitude of startle reflex stimulus alone)×100. The higher the value is, the greater the degree of the inhibition is.

[8] = tested on: PPI in normal rats; experiment: PPI in normal rats (dosing test, normal saline instead of DOI); type: in vivo; conditions: for PPI %, MEAN / PPI %, individual animal: normal saline
Description: as §6
as §7, with “is. Dosing Test:” for “is.”
The DOI at 0.5 mg/kg administered to animals in the above groups was changed to normal saline (NS), and other operations including administration and testing were the same as those in the intervention test.

[9] = target: 5-HT2B receptor (Homo sapiens (Human), UniProt P41595); conditions: background statement, no significant affinity; cited from earlier work
[10] = target: adrenergic receptor; conditions: background statement, no significant affinity; cited from earlier work
[11] = target: muscarinic receptor; conditions: background statement, no significant affinity; cited from earlier work
[12] = target: calcium channel receptor; conditions: background statement, no significant affinity; cited from earlier work
[13] = target: 5-HT2A receptor (Homo sapiens (Human), UniProt P28223); experiment: Competitive 5-HT2A receptor binding assay (3H-Ketanserin, CHO-5-HT2A membrane); conditions: for Ki: CHO-5-HT2A membrane, 3H-Ketanserin, read-out: 5-HT2A (Ki value); for 2C/2A: ratio of 5-HT2C Ki to 5-HT2A Ki
Description: 1) Preparation of CHO-5-HT2A Receptor Membrane
The precipitate was collected, and the supernatant was discarded. The solution B was added into the precipitate. […] The supernatant was carefully discarded, and the solution B was added into the precipitate again. […] The precipitate obtained was stored at −80° C.
1) Competitive 5-HT2A Receptor Binding Assay
Step 2: 100 μL of the membrane preparation was added into each reaction tube.
After the filtration, the filter membrane was dried at 60° C. and added into a scintillation disc attached with a bottom membrane, which was then added with 40 μL of scintillation liquid, sealed with a top membrane, and left to stand.

[14] = target: hERG potassium channel (Homo sapiens (Human), UniProt Q12809); experiment: In vitro hERG assay, whole-cell patch clamp in HEK-293 cells; type: cell-based; conditions: HEK-293 cells stably expressing hERG, room temperature
Description: b. […] The working solutions of the test compounds were ultrasonically treated for 20 min.
The cell suspension was gently pipetted to separate the aggregated cells.
Under an inverted microscope, recording electrodes were controlled by a glass electrode micromanipulator (micromanipulation) to contact with the cell. […] After forming the GΩ seal, a rapid capacitance compensation was given.
Negative control and test compounds flowed through the recording chamber in an ascending order of concentration by gravity perfusion to quickly act on the cells. During the recording, the extracellular fluid was continuously circulated by a vacuum pump. […] Each concentration was allowed to act for 5 min or until the current was stabilized. All experiments were performed at room temperature.
[formula] Basic statistics were calculated for each concentration, including mean, standard deviation (SD), standard error (SE), and replicates (n). The dose-dependent curve was fitted with the following equation and the half maximal inhibitory concentration (IC50) of the test compounds was calculated:
Curve fitting and calculation of IC50 were performed by GraphPad Prism 5.0 software. 5. Experimental Results

[15] = tested on: C57BL/6j mice; experiment: Investigation of sedation side effects (autonomic activity, movement distance); type: in vivo; conditions: sedation ED50 / PDP efficacy ED50
Description: as §3, §4, §5

[16] = target: 5-HT2C receptor (Rattus norvegicus (Rat), UniProt P08909); conditions: read-out: 5-HT2C (Ki value); rat cortex membrane, 3H-Mesulergine
5-HT2C receptor, sequence (P08909 33-460): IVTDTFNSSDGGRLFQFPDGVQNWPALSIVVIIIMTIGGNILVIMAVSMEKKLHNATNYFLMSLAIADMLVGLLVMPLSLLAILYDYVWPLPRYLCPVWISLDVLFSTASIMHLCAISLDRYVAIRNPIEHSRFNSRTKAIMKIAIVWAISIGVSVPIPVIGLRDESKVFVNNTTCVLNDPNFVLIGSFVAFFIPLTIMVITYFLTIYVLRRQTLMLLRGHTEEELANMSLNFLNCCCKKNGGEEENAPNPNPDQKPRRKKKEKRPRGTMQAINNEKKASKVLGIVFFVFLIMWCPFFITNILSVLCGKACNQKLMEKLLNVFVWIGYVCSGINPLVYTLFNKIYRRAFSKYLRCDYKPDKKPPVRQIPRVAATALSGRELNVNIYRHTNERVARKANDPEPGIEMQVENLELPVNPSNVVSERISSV
Description: 2) Preparation of 5-HT2C Membrane
The rat cortex was taken out of a refrigerator at −80° C. and thawed spontaneously. The solution A was added, and the mixture was homogenized for 3-4 s at 4th gear for a total of 4 times and centrifuged at 50000 g for 25 min at 4° C. The supernatant was discarded, and the solution A was added into the precipitate. The mixture was mixed well using a vortex mixer and centrifuged at 50000 g for 25 min at 4° C. (repeated twice). The supernatant was discarded after the centrifugation, and the precipitate was stored at −80° C. for later use.
2) Competitive 5-HT2C Receptor Binding Assay
Step 1: the prepared membrane was suspended in the homogenate B to obtain a 210 mg/mL membrane suspension for later use.
Step 2: 100 μL of the membrane suspension was added into each reaction tube.
Step 3: 100 μL of the solution B was added into a total binding tube (TB), 100 μL of Ketanserin (final concentration: 1.0×10^−5 M) was added into a non-specific binding tube (NB), and 100 μL of test compound was added into each compound binding tube (CB).
Step 4: 10 μL of radioligand ^3H-Mesulergine was added into each reaction tube to reach a final concentration of 3 nM.
Step 5: each reaction tube was incubated at 37° C. for 25 min. After the reaction was completed, the binding ligands were rapidly filtered under reduced pressure, wherein the Whatman test paper GF/C was washed with 0.5% PEI solution 1 h in advance. The filter membrane was fully washed with cold Tris buffer solution, taken out and put into a 4 mL scintillation disc, which was then added with 1 mL toluene scintillation solution and shaken for mixing well.
Step 6: the scintillation disc was put into a liquid scintillation counter for counting.

5-HT2A receptor, sequence (P28223 whole entry): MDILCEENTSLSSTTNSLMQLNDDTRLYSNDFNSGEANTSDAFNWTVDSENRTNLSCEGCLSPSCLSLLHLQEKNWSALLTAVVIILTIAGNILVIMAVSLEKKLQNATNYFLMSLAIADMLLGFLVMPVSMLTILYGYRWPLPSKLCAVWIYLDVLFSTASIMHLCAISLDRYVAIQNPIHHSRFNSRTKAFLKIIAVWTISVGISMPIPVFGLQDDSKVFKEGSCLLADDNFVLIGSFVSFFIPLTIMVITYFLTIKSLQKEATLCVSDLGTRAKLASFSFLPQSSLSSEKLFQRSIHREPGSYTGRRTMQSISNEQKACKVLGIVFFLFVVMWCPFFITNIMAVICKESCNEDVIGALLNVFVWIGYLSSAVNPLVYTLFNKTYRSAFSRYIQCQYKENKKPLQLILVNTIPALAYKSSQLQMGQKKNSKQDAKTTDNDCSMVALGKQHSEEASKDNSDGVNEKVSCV
hERG potassium channel, sequence (Q12809 whole entry): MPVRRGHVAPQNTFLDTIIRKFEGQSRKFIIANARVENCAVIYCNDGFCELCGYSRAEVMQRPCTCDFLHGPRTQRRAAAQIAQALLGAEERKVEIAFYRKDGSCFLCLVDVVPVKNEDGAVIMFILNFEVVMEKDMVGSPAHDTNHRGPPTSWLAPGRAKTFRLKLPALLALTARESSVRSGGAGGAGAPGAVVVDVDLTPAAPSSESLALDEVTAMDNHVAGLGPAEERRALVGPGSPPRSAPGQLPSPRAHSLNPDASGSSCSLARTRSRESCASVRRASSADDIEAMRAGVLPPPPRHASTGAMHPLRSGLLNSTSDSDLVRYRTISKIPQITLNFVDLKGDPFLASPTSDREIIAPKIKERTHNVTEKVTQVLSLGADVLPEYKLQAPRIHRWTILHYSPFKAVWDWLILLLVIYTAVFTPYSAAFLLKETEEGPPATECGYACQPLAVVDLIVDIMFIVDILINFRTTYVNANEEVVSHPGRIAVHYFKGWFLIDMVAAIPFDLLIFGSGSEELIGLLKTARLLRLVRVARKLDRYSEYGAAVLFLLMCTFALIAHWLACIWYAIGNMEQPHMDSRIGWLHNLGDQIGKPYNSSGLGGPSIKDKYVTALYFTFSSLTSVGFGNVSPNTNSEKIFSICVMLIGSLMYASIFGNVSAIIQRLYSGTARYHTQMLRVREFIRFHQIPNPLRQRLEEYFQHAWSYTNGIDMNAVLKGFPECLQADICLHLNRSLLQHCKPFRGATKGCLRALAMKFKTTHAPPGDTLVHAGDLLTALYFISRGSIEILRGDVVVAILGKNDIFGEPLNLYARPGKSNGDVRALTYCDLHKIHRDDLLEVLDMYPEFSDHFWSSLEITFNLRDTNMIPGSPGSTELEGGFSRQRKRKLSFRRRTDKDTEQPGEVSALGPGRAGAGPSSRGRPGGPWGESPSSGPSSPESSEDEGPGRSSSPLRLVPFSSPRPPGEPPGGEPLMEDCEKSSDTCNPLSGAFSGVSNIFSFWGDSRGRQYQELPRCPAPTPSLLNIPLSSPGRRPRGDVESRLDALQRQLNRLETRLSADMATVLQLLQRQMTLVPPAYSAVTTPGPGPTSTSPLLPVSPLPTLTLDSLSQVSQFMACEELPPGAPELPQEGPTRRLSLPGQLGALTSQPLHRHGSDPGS
5-HT2B receptor, sequence (P41595 whole entry): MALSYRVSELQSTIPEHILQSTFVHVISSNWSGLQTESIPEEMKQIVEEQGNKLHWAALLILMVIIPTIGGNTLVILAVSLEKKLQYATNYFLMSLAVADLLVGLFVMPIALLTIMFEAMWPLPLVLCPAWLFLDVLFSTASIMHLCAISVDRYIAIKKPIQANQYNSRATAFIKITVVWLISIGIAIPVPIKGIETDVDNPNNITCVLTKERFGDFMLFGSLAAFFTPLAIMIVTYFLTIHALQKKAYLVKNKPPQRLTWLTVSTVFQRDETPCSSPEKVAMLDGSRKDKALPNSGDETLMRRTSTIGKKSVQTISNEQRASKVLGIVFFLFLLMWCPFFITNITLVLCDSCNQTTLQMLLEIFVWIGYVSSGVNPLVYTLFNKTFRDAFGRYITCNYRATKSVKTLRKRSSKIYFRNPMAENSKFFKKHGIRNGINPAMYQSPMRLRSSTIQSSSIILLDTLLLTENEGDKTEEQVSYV

CC(C)COc1ccc(CNC(=O)N(Cc2ccc(F)cc2)C2CCN(C)CC2)cc1 [Pimavanserin, reference compound]
ED50 [1]: 0.37 mg/kg
ED50 [2]: > 30 mg/kg
DA side effects (climbing motor deterioration) ED50 ([3]; male mice, intraperitoneal): >30 mg/kg
ED50 at 45 min [4]: 6.79 mg/kg
ED50 [5]: 0.39 mg/kg
ED50 [6]: 3.29 mg/kg
reversal of DOI-induced PPI impairment ([7]; 3 mg/kg): significantly reverse
PPI %, MEAN ([7]; 1 mg/kg intragastric): 28.93%
PPI %, individual animal ([7]; 1 mg/kg intragastric): 30.19% and 7.34% and 12.78% and −9.80% and 36.56% and 57.19% and 55.33% and 41.86%
PPI %, MEAN ([7]; 3 mg/kg intragastric): 42.65%
PPI %, individual animal ([7]; 3 mg/kg intragastric): 25.79% and 45.06% and 35.48% and 4.10% and 30.23% and 62.54% and 62.41% and 75.59%
PPI %, MEAN ([7]; 10 mg/kg intragastric): 47.32%
PPI %, individual animal ([7]; 10 mg/kg intragastric): 69.36% and 54.29% and 71.90% and 24.73% and 32.57% and 37.52% and 33.19% and 55.00%
PPI %, MEAN ([8]; 1 mg/kg intragastric): 63.11%
PPI %, individual animal ([8]; 1 mg/kg intragastric): 14.80% and 45.96% and 67.95% and 61.11% and 92.15% and 83.93% and 70.62% and 68.32%
PPI %, MEAN ([8]; 3 mg/kg intragastric): 60.54%
PPI %, individual animal ([8]; 3 mg/kg intragastric): 76.95% and 37.54% and 42.51% and 64.49% and 42.29% and 71.78% and 84.89% and 63.88%
PPI %, MEAN ([8]; 10 mg/kg intragastric): 57.00%
PPI %, individual animal ([8]; 10 mg/kg intragastric): 83.19% and 80.13% and 44.91% and 82.49% and 52.16% and −32.12% and 72.74% and 72.49%
Ki [9]: > 300 nM
Ki [10]: > 300 nM
Ki [11]: > 300 nM
Ki [12]: > 300 nM

CC(C)COc1ccc(CN2Cc3cc(F)ccc3CN(C3CCN(C)CC3)C2=O)cc1 [NH-K-A19001, 7-fluoro-2-(1-methylpiperidin-4-yl)-4-[[4-(2-methylpropoxy)phenyl]methyl]-1,5-dihydro-2,4-benzo diazepine-3-one]
Ki [13]: 0.028 nM
2C/2A [13]: 86.327
IC50 [14]: 260 nM
ED50 [1]: 0.33 mg/kg
motor deterioration (DA mechanism of action) ([3]; observation in words): no motor deterioration is observed
ED50 at 45 min [4]: 3.74 mg/kg
Ratio of sedation ED50 to PDP efficacy ED50 [15]: 11.33
ED50 [5]: 0.06 mg/kg
Ki [16]: 2.4 nM

CN1CCC(N2Cc3cc(F)ccc3CN(Cc3ccc(OC4CC4)cc3)C2=O)CC1 [NH-K-A19006, 8-fluoro-2-(1-methylpiperidin-4-yl)-4-[[4-(cyclopropoxy)phenyl]methyl]-1,5-dihydro-2,4-benzodiazepine-3-one]
Ki [13]: 0.277 nM
2C/2A [13]: 5.856
IC50 [14]: 1190 nM
ED50 [1]: 0.31 mg/kg
ED50 at 45 min [4]: 11.9 mg/kg
ED50 [5]: 0.012 mg/kg
ED50 [6]: 0.265 mg/kg
reversal of DOI-induced PPI impairment ([7]; 0.3 mg/kg): significantly reverse
PPI %, MEAN ([7]; 0.03 mg/kg intragastric): 33.01%
PPI %, individual animal ([7]; 0.03 mg/kg intragastric): 49.78% and 58.97% and 53.17% and 2.79% and 32.00% and 8.44% and 20.87% and 38.06%
PPI %, MEAN ([7]; 0.1 mg/kg intragastric): 43.48%
PPI %, individual animal ([7]; 0.1 mg/kg intragastric): 12.46% and 51.33% and 38.29% and 47.73% and 47.53% and 74.93% and 10.18% and 65.40%
PPI %, MEAN ([7]; 0.3 mg/kg intragastric): 50.12%
PPI %, individual animal ([7]; 0.3 mg/kg intragastric): 60.53% and 60.18% and 56.91% and 67.62% and 85.73% and 7.56% and 39.78% and 22.65%
effect on PPI in normal rats ([8]; 0.3 mg/kg): no significant effects were seen
PPI %, MEAN ([8]; 0.03 mg/kg intragastric): 68.69%
PPI %, individual animal ([8]; 0.03 mg/kg intragastric): 81.41% and 91.96% and 55.90% and 54.35% and 60.94% and 74.39% and 87.22% and 43.35%
PPI %, MEAN ([8]; 0.1 mg/kg intragastric): 70.23%
PPI %, individual animal ([8]; 0.1 mg/kg intragastric): 60.40% (2×) and 81.41% and 77.50% and 71.96% and 69.71% and 50.53% and 89.95%
PPI %, MEAN ([8]; 0.3 mg/kg intragastric): 53.62%
PPI %, individual animal ([8]; 0.3 mg/kg intragastric): 47.76% and 42.79% and 68.71% and 70.20% and 55.52% and 65.07% and 16.28% and 62.68%
Ki [16]: 1.62 nM
